Patent US8791267B2, “Biaryl PDE4 inhibitors for treating inflammatory, cardiovascular and CNS disorders” (Decode Genetics EHF, priority 2007, dated 2014)

What was measured:
[1] = molecular target: PDE4 (Homo sapiens, UniProt Q08499); assay: In-vitro assay for PDE4 enzymes, real-time enzyme-coupled spectrophotometric assay (Table 9); type: biochemical; conditions: human PDE4D; activity class, Table 9; read-out: hPDE4D
[2] = molecular target: PDE4B (Homo sapiens, UniProt Q07343); assay: In-vitro assay for PDE4 enzymes, real-time enzyme-coupled spectrophotometric assay, PDE4B Activity (Table 10); type: biochemical; conditions: human PDE4B (hPDE4B), enzyme-coupled spectrophotometric assay; read-out: PDE4B Activity, hPDE4B
PDE4B, sequence (Q07343 whole entry): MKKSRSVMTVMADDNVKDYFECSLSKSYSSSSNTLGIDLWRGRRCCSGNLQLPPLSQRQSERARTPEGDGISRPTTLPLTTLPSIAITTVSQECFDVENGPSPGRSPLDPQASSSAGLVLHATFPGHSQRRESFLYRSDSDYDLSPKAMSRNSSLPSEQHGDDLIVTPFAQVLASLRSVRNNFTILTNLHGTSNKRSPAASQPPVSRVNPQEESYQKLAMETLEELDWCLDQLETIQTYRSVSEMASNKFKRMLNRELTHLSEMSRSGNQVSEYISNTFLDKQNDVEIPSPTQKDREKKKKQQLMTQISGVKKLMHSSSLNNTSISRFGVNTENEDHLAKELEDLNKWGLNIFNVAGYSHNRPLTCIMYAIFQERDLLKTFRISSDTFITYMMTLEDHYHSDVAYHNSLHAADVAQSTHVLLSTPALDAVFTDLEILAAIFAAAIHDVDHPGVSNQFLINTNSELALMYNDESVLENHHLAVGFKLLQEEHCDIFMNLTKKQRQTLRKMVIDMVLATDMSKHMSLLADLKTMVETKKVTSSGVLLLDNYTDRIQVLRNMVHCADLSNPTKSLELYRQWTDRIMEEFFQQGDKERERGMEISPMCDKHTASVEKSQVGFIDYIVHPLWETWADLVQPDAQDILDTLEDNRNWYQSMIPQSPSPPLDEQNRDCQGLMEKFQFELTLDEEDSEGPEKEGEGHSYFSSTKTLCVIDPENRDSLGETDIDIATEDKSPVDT

PDE4, sequence (Q08499 whole entry): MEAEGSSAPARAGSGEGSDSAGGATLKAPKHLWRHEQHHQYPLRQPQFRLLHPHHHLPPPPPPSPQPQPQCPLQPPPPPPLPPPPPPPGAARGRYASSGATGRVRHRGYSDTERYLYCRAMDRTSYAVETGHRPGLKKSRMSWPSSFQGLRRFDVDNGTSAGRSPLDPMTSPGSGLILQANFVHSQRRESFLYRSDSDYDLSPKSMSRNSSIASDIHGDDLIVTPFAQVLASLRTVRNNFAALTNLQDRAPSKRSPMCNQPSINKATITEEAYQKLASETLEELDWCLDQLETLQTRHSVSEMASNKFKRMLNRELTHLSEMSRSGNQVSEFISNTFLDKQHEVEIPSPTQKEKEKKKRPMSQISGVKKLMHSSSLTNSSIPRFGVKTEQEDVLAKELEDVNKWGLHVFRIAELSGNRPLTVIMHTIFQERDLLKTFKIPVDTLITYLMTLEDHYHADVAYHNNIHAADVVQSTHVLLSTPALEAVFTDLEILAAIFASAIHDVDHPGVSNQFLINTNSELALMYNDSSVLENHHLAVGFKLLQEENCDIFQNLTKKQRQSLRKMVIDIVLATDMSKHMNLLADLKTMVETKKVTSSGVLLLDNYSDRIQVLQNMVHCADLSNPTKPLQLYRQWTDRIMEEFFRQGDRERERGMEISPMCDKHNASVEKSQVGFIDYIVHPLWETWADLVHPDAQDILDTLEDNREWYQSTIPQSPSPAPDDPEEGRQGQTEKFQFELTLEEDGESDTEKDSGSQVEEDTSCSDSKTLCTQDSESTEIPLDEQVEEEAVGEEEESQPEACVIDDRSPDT

IC50 [1] [µM]	IC50 [2] [µM]	SMILES
5 to 20	21 to 40	COc1ccc(COC2CCCC2)nc1-c1cccc([N+](=O)[O-])c1 [P-038, 6-cyclopentyloxymethyl-3-methoxy-2-(3-nitro-phenyl)-pyridine]
5 to 20	5 to 20	COc1ccc(CN2C(=O)CCCC2=O)cc1-c1cccc([N+](=O)[O-])c1 [P-040, 1-(6-Methoxy-3′-nitro-biphenyl-3-ylmethyl)-piperidine-2,6-dione]
5 to 20	< 5	COc1ccc(CN2C(=O)C(=O)c3ccccc32)cc1-c1cccc([N+](=O)[O-])c1 [P-041, 1-(6-Methoxy-3′-nitro-biphenyl-3-ylmethyl)-1H-indole-2,3-dione]
< 5	5 to 20	COc1ccc(CN2C(=O)c3ccccc3C2=O)cc1-c1cccc([N+](=O)[O-])c1 [P-042, 2-(6-Methoxy-3′-nitro-biphenyl-3-ylmethyl)-isoindole-1,3-dione]
< 5	5 to 20	COc1ccc(CN2C(=O)c3ccncc3C2=O)cc1-c1cccc([N+](=O)[O-])c1 [P-043, 2-(6-Methoxy-3′-nitro-biphenyl-3-ylmethyl)-pyrrolo[3,4-c]pyridine-1,3-dione]
< 5	< 5	COc1ccc(Cn2cncn2)cc1-c1ccc2c(c1)OCO2 [P-044, 1-(3-Benzo[1,3]dioxol-5-yl-4-methoxy-benzyl)-1H-[1,2,4]triazole]
20 to 40	5 to 20	COc1ccc(CN2CCCC2=O)cc1-c1ccc2c(c1)OCO2 [P-045, 1-(3-Benzo[1,3]dioxol-5-yl-4-methoxy-benzyl)-pyrrolidin-2-one]
5 to 20	< 5	COc1ccc(Cn2nc3ccccn3c2=O)cc1-c1cccc([N+](=O)[O-])c1 [P-047, 2-(6-Methoxy-3′-nitro-biphenyl-3-ylmethyl)-2H-[1,2,4]triazolo[4,3-a]pyridin-3-one]
< 5	< 5	COc1ccc(C(=O)c2ccc(F)cc2)c(F)c1-c1cccc([N+](=O)[O-])c1 [P-049]
< 5	< 5	COc1ccc(Cc2ccc(F)cc2)c(F)c1-c1cccc([N+](=O)[O-])c1 [P-050]
5 to 20	21 to 40	COc1ccc(CN2C(=O)CCC2=O)cc1-c1ccc2c(c1)OCO2 [P-053, 1-(3-Benzo[1,3]dioxol-5-yl-4-methoxy-benzyl)-pyrrolidine-2,5-dione]
< 5	5 to 20	COc1ccc(CN2C(=O)c3cccnc3C2=O)cc1-c1cccc([N+](=O)[O-])c1 [P-055, 6-(6-Methoxy-3′-nitro-biphenyl-3-ylmethyl)-pyrrolo[3,4-b]pyridine-5,7-dione]
< 5	< 5	O=[N+]([O-])c1cccc(-c2nc(Cc3ccc(F)cc3)ccc2OC(F)F)c1 [P-057]
< 5	5 to 20	COc1ccc(Cn2cncn2)cc1-c1cccc(F)c1 [P-058, 1-(3′-Fluoro-6-methoxy-biphenyl-3-ylmethyl)-1H-[1,2,4]triazole]
< 5	< 5	COc1ccc(Cc2c(C)noc2C)cc1-c1ccc2c(c1)OCO2 [P-062, 4-(3-Benzo[1,3]dioxol-5-yl-4-methoxy-benzyl)-3,5-dimethyl-isoxazole]
< 5	< 5	COc1ccc(Cn2cnnc2)cc1-c1cccc([N+](=O)[O-])c1 [P-066, 4-(6-Methoxy-3′-nitro-biphenyl-3-ylmethyl)-4H-[1,2,4]triazole]
< 5	< 5	O=[N+]([O-])c1cccc(-c2cc(Cc3ccc(F)cc3)ccc2OC(F)F)c1 [P-067, 2-Difluoromethoxy-5-(4-fluoro-benzyl)-3′-nitro-biphenyl]

IC50 [1] [µM]	IC50 [2] [µM]	SMILES
< 5	21 to 40	COc1ccc(CN2CC[C@H](O)C2)cc1-c1cccc([N+](=O)[O-])c1 [P-070, (S)-1-(6-Methoxy-3′-nitro-biphenyl-3-ylmethyl)-pyrrolidin-3-ol]
< 5	21 to 40	COc1ccc(CN2CC[C@@H](O)C2)cc1-c1cccc([N+](=O)[O-])c1 [P-071, (R)-1-(6-Methoxy-3′-nitro-biphenyl-3-ylmethyl)-pyrrolidin-3-01]
5 to 20	21 to 40	COc1ccc(CN2CCC[C@H]2CO)cc1-c1cccc([N+](=O)[O-])c1 [P-072, [(S)-1-(6-Methoxy-3′-nitro-biphenyl-3-ylmethyl)-pyrrolidin-2-yl]-methanol]
< 5	21 to 40	COc1ccc(C(O)c2ccnn2C)cc1-c1ccc2c(c1)OCO2 (stereo not drawn) [P-073, (3-Benzo[1,3]dioxol-5-yl-4-methoxy-phenyl)-(2-methyl-2H-pyrazol-3-yl)-methanol]
< 5	5 to 20	COc1ccc(Cn2cccn2)cc1-c1ccc2c(c1)OCO2 [P-074, 1-(3-Benzo[1,3]dioxol-5-yl-4-methoxy-benzyl)-1H-pyrazole]
< 5	< 5	COc1ccc(Cc2ccnn2C)cc1-c1ccc2c(c1)OCO2 [P-075, 5-(3-Benzo[1,3]dioxol-5-yl-4-methoxy-benzyl)-1-methyl-1H-pyrazole]
< 5	< 5	COc1ccc(CN2CCOC2=O)cc1-c1cccc([N+](=O)[O-])c1 [P-076, 3-(6-Methoxy-3′-nitro-biphenyl-3-ylmethyl)-oxazolidin-2-one]
< 5	< 5	COc1ccc(Cn2cccn2)cc1-c1cccc([N+](=O)[O-])c1 [P-077, 1-(6-Methoxy-3′-nitro-biphenyl-3-ylmethyl)-1H-pyrazole]
< 5	< 5	O=[N+]([O-])c1cccc(-c2cc(C(O)c3ccc(F)cc3)ccc2OC(F)(F)F)c1 (stereo not drawn) [P-079, (4-Fluoro-phenyl)-(3′-nitro-6-trifluoromethoxy-biphenyl-3-yl)-methanol]
< 5	5 to 20	COc1ccc(Cn2cncn2)cc1-c1cccc(C#N)c1 [P-081, 2′-Methoxy-5′-[1,2,4]triazol-1-ylmethyl-biphenyl-3-carbonitrile]
< 5	5 to 20	COc1ccc(Cn2cncn2)cc1-c1cccc(C(C)=O)c1 [P-082, 1-(2′-Methoxy-5′-[1,2,4]triazol-1-ylmethyl-biphenyl-3-yl)-ethanone]
5 to 20	5 to 20	COc1ccc(CN2CCOC2=O)cc1-c1cccc(C(F)(F)F)c1 [P-083]
< 5	5 to 20	COc1ccc(Cn2cncn2)cc1-c1cccc(OC(F)(F)F)c1 [P-084, 1-(6-Methoxy-3′-trifluoromethoxy-biphenyl-3-ylmethyl)-1H-[1,2,4]triazole]
< 5	< 5	COc1ccc(Cn2cncn2)cc1-c1cccc(SC)c1 [P-085, 1-(6-Methoxy-3′-methylsulfanyl-biphenyl-3-ylmethyl)-1H-[1,2,4]triazole]
< 5	5 to 20	COc1cccc(-c2cc(Cn3cncn3)ccc2OC)c1 [P-086, 1-(6,3′-Dimethoxy-biphenyl-3-ylmethyl)-1H-[1,2,4]triazole]
< 5	< 5	CCOC(=O)Cn1nc(C)c(Cc2ccc(OC)c(-c3cccc([N+](=O)[O-])c3)c2)c1C [P-087, [4-(6-Methoxy-3′-nitro-biphenyl-3-ylmethyl)-3,5-dimethyl-pyrazol-1-yl]-acetic acid ethyl ester]
